# Calls of active or inactive are those of the source.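 Rule for the calls: active = at least one rat sex group has a carcinogenic potency value and tumor site recorded; inconclusive = only rat studies were judged inadequate by the national testing program; inactive = no potency or tumor site, with negative rat experiments.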
# Tested on: rat chronic carcinogenicity bioassay, TD50
# Assay: DSSTox (CPDBAS) Carcinogenic Potency Database Summary Rat Bioassay Results
# Conditions: for Potency: stronger effect = lower value
# Method in brief: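 Chronic long-term rat cancer bioassays from literature and NCI/NTP, taking the most positive result per sex. TD50 in mmol converted to a 1–100 Activity Score from log10(1/TD50). Mixtures lacking TD50 scored 50.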
# [1] = TD50_Rat_Note: no positive results, TargetSites_Rat_Female: no positive results
# [2] = TargetSites_Rat_Female: no positive results
# [3] = TD50_Rat_Note: TD50 is harmonic mean of more than one positive test, TargetSites_Rat_Female: liver, vascular system
# [4] = TD50_Rat_Note: TD50 is harmonic mean of more than one positive test, TargetSites_Rat_Female: thyroid gland
# [5] = TD50_Rat_Note: TD50 is harmonic mean of more than one positive test, TargetSites_Rat_Female: liver
# [6] = TD50_Rat_Note: no positive results
# [7] = TD50_Rat_Note: no positive results, TargetSites_Rat_BothSexes: no positive results
structure (smiles),measurement,setting,value
COc1cc(-c2ccc(N)c(OC)c2)ccc1N,Potency,"TD50_Rat_Note: TD50 is harmonic mean of more than one positive test, TargetSites_Rat_Female: clitoral gland, ear Zymbals gland, large intestine, liver, mammary gland, oral cavity, skin, uterus",1.04 mg/kg/day
CCCl,outcome,[1],inactive; no positive results
COc1ccc(OC)c(/C=C/c2ccc(N)cc2)c1,Potency,,0.721 mg/kg/day
CN(N=O)C(N)=O,Potency,,0.0927 mg/kg/day
CC(=O)N(C(C)=O)c1cccc2c1Cc1ccccc1-2,Potency,"TargetSites_Rat_Female: ear Zymbals gland, mammary gland",19 mg/kg/day
c1ccncc1,Potency,[2],67.3 mg/kg/day
CC(C)C=O,outcome,[1],inactive; no positive results
Cc1ccccc1N=O,Potency,,50.7 mg/kg/day
O=NN1CCOCC1,Potency,[3],0.109 mg/kg/day
C=CCc1ccc(OC)c(OC)c1,Potency,"TD50_Rat_Note: TD50 is harmonic mean of more than one positive test, TargetSites_Rat_Female: liver, stomach",19.7 mg/kg/day
CC(C)N=[N+]([O-])C(C)C,Potency,,0.00268 mg/kg/day
CCN(Cc1cccc(S(=O)(=O)O)c1)c1ccc(C(=C2C=CC(=[N+](CC)Cc3cccc(S(=O)(=O)[O-])c3)C=C2)c2ccc(S(=O)(=O)O)cc2)cc1,Potency,TargetSites_Rat_BothSexes: hematopoietic system,5640 mg/kg/day
C=C(C)[C@H]1Cc2c(ccc3c2O[C@@H]2COc4cc(OC)c(OC)cc4[C@@H]2C3=O)O1,outcome,[1],inactive; no positive results
CCCc1cc(=O)[nH]c(=S)[nH]1,Potency,[4],13.7 mg/kg/day
O=C1c2ccccc2-c2ccc3c4c(ccc1c24)-c1ccccc1C3=O,outcome,[1],inactive; no positive results
NC(=O)c1ccccc1C(N)=O,outcome,[1],inactive; no positive results
CCN(CC)C(C)=O,Potency,TD50_Rat_Note: no positive results are statistically significant,8.85 mg/kg/day
CN1[C@@H]2CC[C@H]1CC(OC(=O)C(CO)c1ccccc1)C2 (stereo partly specified),outcome,[1],inactive; no positive results
CCN(CC)N=O,Potency,"TD50_Rat_Note: TD50 is harmonic mean of more than one positive test, greater than ten-fold variation among TD50 values for positive res, TargetSites_Rat_Female: esophagus, liver, oral cavity, stomach",0.0265 mg/kg/day
O=C1OC(=O)c2ccccc21,outcome,[1],inactive; no positive results
C=O,Potency,"TD50_Rat_Note: TD50 is harmonic mean of more than one positive test, greater than ten-fold variation among TD50 values for positive res, TargetSites_Rat_Female: hematopoietic system, nasal cavity",1.35 mg/kg/day
CC(C)[N+](=O)[O-],outcome,[1],inactive; no positive results
O=CCCCC=O,outcome,[1],inactive; no positive results
COc1cccc2c1cc([N+](=O)[O-])c1c(C(=O)O)cc3c(c12)OCO3,Potency,"TD50_Rat_Note: TD50 is harmonic mean of more than one positive test, TD50_Rat_mmol was not calculated for this mixture, but Activiity S, TargetSites_Rat_Female: stomach",0.0141 mg/kg/day
C=CC(=C)C,Potency,"TD50_Rat_Note: TD50 is harmonic mean of more than one positive test, TargetSites_Rat_Female: mammary gland",313 mg/kg/day
O=NN1CCCCC1C(=O)O (stereo unspecified),outcome,[1],inactive; no positive results
C[C@]12C=CC(=O)C=C1CC[C@@H]1[C@@H]2[C@@H](O)C[C@@]2(C)[C@H]1CC[C@]2(O)C(=O)COC(=O)CCCc1ccc(N(CCCl)CCCl)cc1,Potency,TargetSites_Rat_Female: ear Zymbals gland,19.2 mg/kg/day
CCCCN(CCCC)N=O,Potency,,0.691 mg/kg/day
O=NN1CCOC(O)C1 (stereo unspecified),outcome,[1],inactive
O=NN(CC(=O)O)CC(=O)O,outcome,[1],inactive; no positive results
O=C(O)[C@@H]1[C@H](C(=O)O)[C@@]2(Cl)C(Cl)=C(Cl)[C@]1(Cl)C2(Cl)Cl,Potency,[5],40.8 mg/kg/day
CNNCc1ccc(C(=O)NC(C)C)cc1,Potency,"TD50_Rat_Note: positive test results only by intraperitoneal or intravenous injection, TD50 is harmonic mean of more than one positive, TargetSites_Rat_Female: hematopoietic system, mammary gland, nervous system",0.351 mg/kg/day
same,Potency,TD50_Rat_Note: positive test results only by intraperitoneal or intravenous injection,4.01 mg/kg/day
O=C1OC(C(O)CO)C(O)=C1O (stereo unspecified),outcome,[6],inactive; no positive results
CC(C(=O)O)c1cccc(C(=O)c2ccccc2)c1 (stereo unspecified),outcome,[6],inactive; no positive results
CCN=[N+]([O-])CC,Potency,,0.022 mg/kg/day
O=C1NC(c2ccc([N+](=O)[O-])s2)Nc2ccccc21 (stereo unspecified),Potency,TargetSites_Rat_Female: all tumor bearing animals,1.53 mg/kg/day
[O]=[Cr](=[O])([OH])[O][Cr](=[O])(=[O])[OH],Potency,,4.64 mg/kg/day
NC(N)=O,outcome,[1],inactive; no positive results
O=C1CN=C(c2ccccc2)c2cc(Cl)ccc2N1CC1CC1,outcome,[1],inactive; no positive results
CN(C)CCN(Cc1cccs1)c1ccccn1,Potency,[5],9.13 mg/kg/day
CC(=O)Nc1ccc2c(c1)Cc1ccccc1-2,Potency,"TD50_Rat_Note: TD50 is harmonic mean of more than one positive test, TargetSites_Rat_Female: liver, mammary gland, skin",1.22 mg/kg/day
CNC(=O)CSP(=S)(OC)OC,outcome,[1],inactive; no positive results
Cc1ccccc1[N+](=O)[O-],Potency,"TD50_Rat_Note: TD50 is harmonic mean of more than one positive test, greater than ten-fold variation among TD50 values for positive res, TargetSites_Rat_Female: liver, mammary gland, subcutaneous tissue",4.66 mg/kg/day
O=C1C(c2[nH]c3ccc(S(=O)(=O)O)cc3c2O)=Nc2ccc(S(=O)(=O)O)cc21,outcome,[7],inactive
O=[N+]([O-])c1cc([As](=O)(O)O)ccc1O,outcome,[1],inactive; no positive results
OCCOCCOCCO,outcome,[6],inactive; no positive results
Cc1ccc(S(=O)(=O)OCCN(C)N=O)cc1,Potency,[3],4.8 mg/kg/day
Cl/C=C/CCl,Potency,"TD50_Rat_Note: TD50 is harmonic mean of more than one positive test, TargetSites_Rat_Female: stomach",94 mg/kg/day
same,Potency,[1],100 mg/kg/day
O=C(O)c1cc(=O)[nH]c(=O)[nH]1,outcome,[6],inactive; no positive results
COc1cc(O)c2c(=O)c3c(OC)cc4c(c3oc2c1OC)C1C=COC1O4 (stereo unspecified),Potency,"TD50_Rat_Note: TD50 value is overestimated as upper 99% confidence limit from study with 100% tumor incidence but no lifetable, harmoni",0.364 mg/kg/day
CC(C)(C)c1cc([N+](=O)[O-])cc([N+](=O)[O-])c1OS(C)(=O)=O,outcome,[1],inactive; no positive results
C=CC(=O)O,outcome,[1],inactive; no positive results
C=CC(N)=O,Potency,"TD50_Rat_Note: TD50 is harmonic mean of more than one positive test, TargetSites_Rat_Female: clitoral gland, mammary gland, nervous system, oral cavity, thyroid gland, uterus",3.75 mg/kg/day
COP(=O)(OC)O/C(=C\Cl)c1cc(Cl)c(Cl)cc1Cl,outcome,"TD50_Rat_Note: no positive results, TargetSites_Rat_Female: no positive results- CPDB evaluation based on NCI Technical Report",no positive results
CC1=C(CC(=O)O)c2cc(F)ccc2/C1=C\c1ccc(S(C)(=O)=O)cc1,outcome,[6],inactive; no positive results
CN(C)CNc1nnc(/C=C/c2ccc([N+](=O)[O-])o2)o1,Potency,"TargetSites_Rat_Female: lung, mammary gland, small intestine, stomach",22.4 mg/kg/day
OCN(CO)c1nc(N(CO)CO)nc(N(CO)CO)n1,Potency,"TargetSites_Rat_Female: kidney, mammary gland",10.2 mg/kg/day
COc1cc(OC)c2c3c(c(=O)oc2c1)C(=O)CC3,outcome,[6],inactive; no positive results
S=C=NCCCCCCc1ccccc1,outcome,[6],inactive; no positive results
c1ccc2c(c1)cc1ccc3cccc4ccc2c1c34,Potency,TargetSites_Rat_BothSexes: stomach,0.956 mg/kg/day
CCCCCCCCCCCCC(=O)COC1=C(O)C(=O)O[C@@H]1[C@@H](O)CO,outcome,[1],inactive
COc1cc(/C=C/C(=O)O[C@H]2CC[C@]34C[C@]35CC[C@]3(C)[C@@H]([C@H](C)CCC=C(C)C)CC[C@@]3(C)[C@@H]5CC[C@H]4C2(C)C)ccc1O,outcome,[1],inactive; no positive results
CC(C)(C)c1cc(CO)cc(C(C)(C)C)c1O,outcome,[1],inactive; no positive results
CNC(=S)NC,outcome,[6],inactive; no positive results
C[C@@H]1C[C@H](C)CN(S(=O)(=O)c2ccc(Cl)c(C(=O)O)c2)C1,Potency,,4.85 mg/kg/day
CCC1(c2ccccc2)C(=O)NCNC1=O,outcome,[1],inactive; no positive results
CC(=O)c1ccc(S(=O)(=O)NC(=O)NC2CCCCC2)cc1,outcome,[1],inactive; no positive results
Nc1ccc(N)c(Cl)c1,outcome,[1],inactive; no positive results
COC(=O)[C@H]1[C@H]2C[C@@H]3c4[nH]c5ccccc5c4CCN3C[C@H]2C[C@@H](OC(=O)c2cc(OC)c(OC)c(OC)c2)[C@@H]1OC,outcome,[7],inactive
CCCCCCCCCCCC[N+](C)(C)[O-],outcome,[1],inactive; no positive results
COc1ccc(O)c(C(C)(C)C)c1,Potency,"TD50_Rat_Note: TD50 is harmonic mean of more than one positive test, harmonic mean of TD50 includes a value for upper 99% confidence li, TargetSites_Rat_Female: stomach",405 mg/kg/day
Nc1ccc(Cc2ccc(N)cc2)cc1,Potency,[4],20 mg/kg/day
Cc1ccc(Cl)cc1N,outcome,[1],inactive; no positive results
CC(=O)CN(CC(C)=O)N=O,Potency,"TD50_Rat_Note: TD50 is harmonic mean of more than one positive test, TargetSites_Rat_Female: liver, lung, vascular system",0.491 mg/kg/day
O.O.O.O.O.O.O.O.O=S(=O)([O-])[O-].O=S(=O)([O-])[O-].O=S(=O)([O-])[O-].[Cd+2].[Cd+2].[Cd+2],outcome,[6],inactive; no positive results
CCC(Br)(CC)C(=O)NC(N)=O,outcome,[1],inactive; no positive results
Nc1ccccc1C(=O)OC/C=C/c1ccccc1,Potency,[2],12100 mg/kg/day
C[C@]12CC[C@H]3C(=CCc4cc(OS(=O)(=O)O)ccc43)[C@@H]1CCC2=O,outcome,[1],inactive; no positive results
C=C/C1=C/[C@H](C)[C@](C)(OC(C)=O)C(=O)OCC2=CC[N+]3(C)CC[C@@H](OC1=O)C23[O-] (stereo partly specified),Potency,"TargetSites_Rat_BothSexes: liver, vascular system",0.5 mg/kg/day
C=CCN(CCO)N=O,Potency,"TargetSites_Rat_Female: liver, nasal cavity",0.491 mg/kg/day
O=P(OCCCl)(OCCCl)OCCCl,Potency,"TD50_Rat_Note: TD50 is harmonic mean of more than one positive test, TargetSites_Rat_Female: kidney",86.7 mg/kg/day
Nc1c(Cl)cc(Cl)cc1Cl,outcome,[6],inactive; no positive results
O=C(O)c1nn(Cc2ccc(Cl)cc2Cl)c2ccccc12,outcome,[1],inactive; no positive results
C[C@@H]1O[C@@H](OC[C@H]2O[C@@H](Oc3c(-c4ccc(O)c(O)c4)oc4cc(O)cc(O)c4c3=O)[C@H](O)[C@@H](O)[C@@H]2O)[C@H](O)[C@H](O)[C@H]1O,outcome,[1],inactive; no positive results

# Reference: PubChem BioAssay AID1208 (EPA DSSTox, 2008)
